# pEC50: −log10 of the molar value.
# Test system: HBV viral load (viral production from HepAD38 cells)
# Test: Activity of test compounds on viral production from HepAD38 cells (viral load by qPCR of HBV core sequence)
# Assay type: cell-based
# Details: Hepatitis B virus, HePAD38, 120 h, viral load lowering, 5 days, qPCR of supernatant, read-out: VL HepAD38 EC50 range
# How it was run: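 HepAD38 cells seeded at 50,000/well in tetracycline-free medium with 2% FBS, treated 5 days at 37 °C with compounds from 10 μM top concentration. Supernatant HBV DNA quantified by TaqMan qPCR of core sequence against HBV DNA standards, relative to DMSO wells; viability by CellTiter-Glo; EC50/CC50 by four-parameter logistic fit.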
row,Structure (SMILES),pEC50
1,"CN(C)S(=O)(=O)c1cc(C2(O)CC3CC(c4ncn(C)c4C(=O)Nc4ccc(F)c(Cl)c4)CC3C2)n(C)n1 (centres unmarked) [Example 100, N-(3-chloro-4-fluorophenyl)-4-(5-(3-(N,N-dimethylsulfamoyl)-1-methyl-1H-pyrazol-5-yl)-5-hydroxyoctahydropentalen-2-yl)-1-methyl-1H-imidazole-5-carboxamide]",> 8.00
2,"Cn1cnc(C2CC3CC(N4CCOCC4)CC3C2)c1C(=O)Nc1ccc(F)c(Cl)c1 (centres unmarked) [Example 47, 5-[-5-(4-Morpholinyl)-1,2,3,3a,4,5,6,6a-octahydropentalen-2-yl]-N-(3-chloro-4-fluorophenyl)-3-methyl-4-imidazolecarboxamide]",6.30 to 7.30
3,"Cn1cnc(C2CC3CC(O)(c4c(F)c(NCC(C)(C)O)nn4C)CC3C2)c1C(=O)Nc1ccc(F)c(Cl)c1 (centres unmarked) [Example 63, N-(3-Chloro-4-fluorophenyl)-4-(5-(4-fluoro-3-((2-hydroxy-2-methylpropyl)amino)-1-methyl-1H-pyrazol-5-yl)-5-hydroxyoctahydropentalen-2-yl)-1-methyl-1H-imidazole-5-carboxamide]",> 8.00
4,"Cn1cnc(C2CC3CC(O)(c4cc(OCC(O)C(F)(F)F)nn4C)CC3C2)c1C(=O)Nc1ccc(F)c(Cl)c1 (centres unmarked) [Example 207, N-(3-Chloro-4-fluorophenyl)-4-(5-hydroxy-5-(1-methyl-3-(3,3,3-trifluoro-2-hydroxypropoxy)-1H-pyrazol-5-yl)octahydropentalen-2-yl)-1-methyl-1H-imidazole-5-carboxamide]",> 8.00
5,"Cn1cnc(C2CC3CC(O)(c4cc(C(F)F)nn4C)CC3C2)c1C(=O)Nc1ccc(F)c(Cl)c1 (centres unmarked) [Example 133, N-(3-chloro-4-fluorophenyl)-4-(5-(3-(difluoromethyl)-1-methyl-1H-pyrazol-5-yl)-5-hydroxyoctahydropentalen-2-yl)-1-methyl-1H-imidazole-5-carboxamide]",> 8.00
6,"Cn1cnc(C2CC3CC(O)(c4cc(C(N)=O)nn4C)CC3C2)c1C(=O)Nc1ccc(F)c(Cl)c1 (centres unmarked) [Example 176, 5-(5-(5-((3-Chloro-4-fluorophenyl)carbamoyl)-1-methyl-1H-imidazol-4-yl)-2-hydroxyoctahydropentalen-2-yl)-1-methyl-1H-pyrazole-3-carboxamide]",> 8.00
7,"O=C1CC2CC(c3ncsc3C(=O)Nc3ccc(F)c(Cl)c3)CC2C1 (centres unmarked) [Example 38, N-(3-Chloro-4-fluorophenyl)-4-(5-oxooctahydropentalen-2-yl)thiazole-5-carboxamide]",> 8.00
8,"CC(C)Oc1cc(C2(O)CC3CC(c4ncn(C)c4C(=O)Nc4ccc(F)c(Cl)c4)CC3C2)n(C)n1 (centres unmarked) [Example 54, N-(3-Chloro-4-fluorophenyl)-4-(5-hydroxy-5-(3-isopropoxy-1-methyl-1H-pyrazol-5-yl)octahydropentalen-2-yl)-1-methyl-1H-imidazole-5-carboxamide]",> 8.00
9,"Cn1c(Cl)nc(C2CC3CC(=O)CC3C2)c1C(=O)Nc1ccc(F)c(Cl)c1 (centres unmarked) [Example 21, 2-Chloro-N-(3-chloro-4-fluorophenyl)-1-methyl-4-(5-oxooctahydropentalen-2-yl)-1H-imidazole-5-carboxamide]",> 8.00
10,"CC(O)COc1cc(C2(O)CC3CC(c4ncn(C)c4C(=O)Nc4ccc(F)c(Cl)c4)CC3C2)n(C)n1 (single isomer, unassigned) [Example 209, N-(3-Chloro-4-fluorophenyl)-4-(5-hydroxy-5-(3-(2-hydroxypropoxy)-1-methyl-1H-pyrazol-5-yl)octahydropentalen-2-yl)-1-methyl-1H-imidazole-5-carboxamide]",> 8.00
11,"Cc1cnn(C)c1C1(O)CC2CC(c3ncn(C)c3C(=O)Nc3ccc(F)c(Cl)c3)CC2C1 (centres unmarked) [Example 131, N-(3-chloro-4-fluorophenyl)-4-(5-(1,4-dimethyl-1H-pyrazol-5-yl)-5-hydroxyoctahydropentalen-2-yl)-1-methyl-1H-imidazole-5-carboxamide]",> 8.00
12,"Cc1nc(C2CC3CC(O)CC3C2)c(C(=O)Nc2ccc(F)c(Cl)c2)n1C (centres unmarked) [Example 24, N-(3-Chloro-4-fluorophenyl)-4-(5-hydroxyoctahydropentalen-2-yl)-1,2-dimethyl-1H-imidazole-5-carboxamide]",> 8.00
13,"Cn1ccc(C2(O)CC3CC(c4ncn(C)c4C(=O)Nc4ccc(F)c(Cl)c4)CC3C2)n1 (centres unmarked) [Example 118, N-(3-chloro-4-fluorophenyl)-4-(5-hydroxy-5-(1-methyl-1H-pyrazol-3-yl)octahydropentalen-2-yl)-1-methyl-1H-imidazole-5-carboxamide]",> 8.00
14,"Cn1cnc(C2CC3CC(O)(c4cc(NS(C)(=O)=O)nn4C)CC3C2)c1C(=O)Nc1ccc(F)c(Cl)c1 (centres unmarked) [Example 198, N-(3-Chloro-4-fluorophenyl)-4-(5-hydroxy-5-(1-methyl-3-(methylsulfonamido)-1H-pyrazol-5-yl)octahydropentalen-2-yl)-1-methyl-1H-imidazole-5-carboxamide]",7.30 to 8.00
15,"Cn1cnc(C2CC3CC(O)(c4cc(C(F)(F)F)n[nH]4)CC3C2)c1C(=O)Nc1ccc(F)c(C#N)c1 (centres unmarked) [Example 194, N-(3-Cyano-4-fluorophenyl)-4-(5-hydroxy-5-(3-(trifluoromethyl)-1H-pyrazol-5-yl)octahydropentalen-2-yl)-1-methyl-1H-imidazole-5-carboxamide]",7.30 to 8.00
16,"Cn1cnc(C2CC3CC(O)(c4cc(C(C)(C)O)nn4C)CC3C2)c1C(=O)Nc1ccc(F)c(C#N)c1 (centres unmarked) [Example 108, N-(3-Cyano-4-fluorophenyl)-4-(5-hydroxy-5-(3-(2-hydroxypropan-2-yl)-1-methyl-1H-pyrazol-5-yl)octahydropentalen-2-yl)-1-methyl-1H-imidazole-5-carboxamide]",> 8.00
17,"Cn1cnc(-c2ccc(C3CCC(c4ncn(C)c4C(=O)Nc4ccc(F)c(Cl)c4)C3)cc2)c1 (centres unmarked) [Example 14, N-(3-Chloro-4-fluorophenyl)-1-methyl-4-(3-(4-(1-methyl-1H-imidazol-4-yl)phenyl)cyclopentyl)-1H-imidazole-5-carboxamide]",> 8.00
18,"Cn1cnc(C2CC3CC(O)(Cn4ccc(O)n4)CC3C2)c1C(=O)Nc1ccc(F)c(Cl)c1 (centres unmarked) [Example 95, N-(3-chloro-4-fluorophenyl)-4-(5-hydroxy-5-((3-hydroxy-1H-pyrazol-1-yl)methyl)octahydropentalen-2-yl)-1-methyl-1H-imidazole-5-carboxamide]",7.30 to 8.00
19,"Cn1cnc(C2CC3CC(O)(c4c(C(N)=O)cnn4C)CC3C2)c1C(=O)Nc1ccc(F)c(Cl)c1 (centres unmarked) [Example 126, 5-(5-(5-((3-chloro-4-fluorophenyl)carbamoyl)-1-methyl-1H-imidazol-4-yl)-2-hydroxyoctahydropentalen-2-yl)-1-methyl-1H-pyrazole-4-carboxamide]",> 8.00
20,"Cc1cc(C2(O)CC3CC(c4ncn(C)c4C(=O)Nc4ccc(F)c(Cl)c4)CC3C2)[nH]n1 (centres unmarked) [Example 144, N-(3-Chloro-4-fluorophenyl)-4-(5-hydroxy-5-(3-methyl-1H-pyrazol-5-yl)octahydropentalen-2-yl)-1-methyl-1H-imidazole-5-carboxamide]",> 8.00
21,"Cn1cnc(C2CC3CC(O)(c4c(F)c(C#N)nn4C)CC3C2)c1C(=O)Nc1ccc(F)c(Cl)c1 (centres unmarked) [Example 64, N-(3-Chloro-4-fluorophenyl)-4-(5-(3-cyano-4-fluoro-1-methyl-1H-pyrazol-5-yl)-5-hydroxyoctahydropentalen-2-yl)-1-methyl-1H-Imidazole-5-carboxamide]",> 8.00
22,"Cc1nc(C2CC3CC(O)(CS(C)(=O)=O)CC3C2)c(C(=O)Nc2ccc(F)c(Cl)c2)n1C (centres unmarked) [Example 25, N-(3-Chloro-4-fluorophenyl)-4-(5-hydroxy-5-((methylsulfonyl)methyl)octahydropentalen-2-yl)-1,2-dimethyl-1H-imidazole-5-carboxamide]",> 8.00
23,"Cn1cnc(C2CC3CC(O)(Cn4cccn4)CC3C2)c1C(=O)Nc1ccc(F)c(Cl)c1 (single isomer, unassigned) [Example 128, 4-(5-((1H-pyrazol-1-yl)methyl)-5-hydroxyoctahydropentalen-2-yl)-N-(3-chloro-4-fluorophenyl)-1-methyl-1H-imidazole-5-carboxamide]",> 8.00

# — patent publication US12655130B2 (ASSEMBLY BIOSCIENCES, INC., priority 2020, dated 2026)
